# Measurements as given in ChEMBL document CHEMBL3763034, “Exploring the importance of zinc binding and steric/hydrophobic factors in novel HCV replication inhibitors” (Bioorg Med Chem Lett, 2016).
# What was measured:
# [1] = tested on: Hepatitis C virus; assay: Antiviral activity against HCV1b replicon (I389luc-ubi-neo/NS3-3/5.1) infected in Huh5-2 cells assessed as inhibition of viral RNA replication by luciferase reporter gene assay; assay type: functional, organism-based, Hepacivirus hominis; conditions: genotype 1b, Huh-5-2
# [2] = Selectivity index, ratio of CC50 for human Huh5-2 cells to EC50 for hepatitis C virus genotype 1b I389luc-ubi-neo/NS3-3/5.1 replicon infected in human Huh5-2 cells; assay type: toxicity, cell-based, Huh-5-2; conditions: read-out: Ratio CC50/EC50
# [3] = Cytotoxicity against human Huh5-2 cells assessed as reduction in cell metabolic activity after 72 hrs by MTS assay; assay type: ADME, cell-based, Huh-5-2
# [4] = Cytotoxicity against human Huh-9-13 cells assessed as reduction in cell metabolic activity after 72 hrs by MTS assay; assay type: ADME, cell-based
# [5] = tested on: Hepatitis C virus; assay: Antiviral activity against HCV 1b replicon (I389luc-ubi-neo/NS3-3/5.1) infected in Huh-9-13 cells assessed as inhibition of viral RNA replication by RT-PCR method; assay type: functional, organism-based, Hepacivirus hominis; conditions: genotype 1b
# [6] = Selectivity index, ratio of CC50 for human Huh-9-13 cells to EC50 for hepatitis C virus genotype 1b I389luc-ubi-neo/NS3-3/5.1 replicon infected in human Huh-9-13 cells; assay type: toxicity, cell-based; conditions: read-out: Ratio CC50/EC50
# [7] = Binding affinity to zinc by UV-VIS spectroscopic analysis
Structure (SMILES),EC50 [1] [µM],EC50 [5] [µM],Kd [7] [µM],selectivity ratio [2],CC50 at 72 h [3] [µM],CC50 at 72 h [4] [µM],selectivity ratio [6]
O=C(O)c1cccc2[nH]c(-c3ccccc3O)nc12,24,23,,> 8.2,> 197,> 100,> 4.3
COC(=O)c1cccc2[nH]c(-c3ccccc3O)nc12,106,,190,1.3,132,,
CN(C)C(=O)c1cccc2oc(-c3ccccc3O)nc12,109,,,> 1.6,> 177,,
O=C(O)c1cccc2c1nc(-c1ccccc1O)n2Cc1ccccc1,2.6,0.6,,> 55,> 145,> 100,> 167
COC(=O)c1cccc2c1nc(-c1ccccc1O)n2Cc1ccccc1,7.5,0.9,,> 19,> 140,95,106
CNC(=O)c1cccc2c1nc(-c1ccccc1O)n2Cc1ccccc1,8.4,21,,12,101,38,1.8
CCCCNC(=O)c1cccc2oc(-c3ccccc3O)nc12,7.2,,,5.4,39,,
CNC(=O)c1cccc2[nH]c(-c3ccccc3O)nc12,16,3.1,,> 12,> 187,47,15

# Now from value to compound, other results behind:
EC50 [1] [µM],EC50 [5] [µM],Kd [7] [µM],Structure (SMILES),selectivity ratio [2],CC50 at 72 h [3] [µM],CC50 at 72 h [4] [µM],selectivity ratio [6]
52,,,COC(=O)c1cccc2oc(-c3ccc4ccccc4c3O)nc12,1.2,64,,
10,,,O=C(NCc1ccccc1)c1cccc2oc(-c3ccccc3O)nc12,> 5,> 50,,
> 50,,,COC(=O)c1cccc2oc(-c3cccc4cccnc34)nc12,,> 50,,
47,,,NC(=O)c1cccc2oc(-c3ccccc3O)nc12,> 4.2,> 197,,
2.5,,0.23,COC(=O)c1cccc2oc(-c3ccccc3S)nc12,1.6,4.1,,
28,,,COC(=O)c1cccc2oc(-c3c(O)ccc4ccccc34)nc12,> 1.8,> 50,,
40,,65,COC(=O)c1cccc2oc(-c3ccccc3O)nc12,1.8,71,,
117,,53,CNC(=O)c1cccc2oc(-c3ccccc3O)nc12,> 1.6,> 186,,
31,,,COC(=O)c1cccc2oc(-c3cc4ccccc4cc3O)nc12,> 1.6,> 50,,
4.9,,0.5,O=C(O)c1cccc2oc(-c3ccccc3O)nc12,5.1,25,,
